Experiments:
mongrel dogs [1] = assay: CNS-depressant activity in mongrel dogs (oral); settings: 100 mg/kg
renal hypertensive dogs [2] = assay: Tachiphylaxis experiment: daily oral administration for 7 consecutive days, systolic blood pressure; assay type: in vivo, dog; settings: for % Δ of S.B.P., peak effect (7h) / S.B.P., basal value / S.B.P., peak effect (7h) / % Δ of S.B.P., basal value: Table IV, 10 mg/kg/die per os
mongrel dogs [3] = settings: dog, in vivo
Beagle dogs = settings: dog, in vivo, po
mice = assay: "running-fit" test (antagonism of the effects of morphine); assay type: in vivo, mouse; settings: morphine 60 mg/Kg s.c.
Description: This test is conducted essentially as described in the literature.

renal hypertensive dogs [4] = assay: CNS depressant effect and tachycardia during prolonged (7-day) treatment in dogs; assay type: in vivo, dog; settings: per os 10 mg/kg/die, 7 days
[5] = system: conscious normotensive dogs; assay: Myocardial contractility in conscious normotensive dogs; assay type: in vivo, dog (mongrel); settings: single oral 20 mg/kg; for Myocardial contractility / % Δ of myocardial contractility: Table V
Description: (§1) As for the experiments with conscious normotensive dogs, mongrel dogs with incannulated abdominal aorta or with incannulated abdominal aorta and cardiac left ventricle were used. The compounds were administered by oral route as powder in gelatine capsules. Mean blood pressure (M.B.P.) was registered directly using a Bentley pressure transducer.
Myocardial contractility was calculated as
1/P·dp/dt ^(max)
The results of this experiment, which was conducted after a single oral administration of 20 mg/kg of the test compound, are summarized below: […]

[6] = Acute toxicity (LD50) in mice; settings: mouse, in vivo
Description: The LD50 values of the compounds of the invention are generally higher than 500 mg/kg when given per os and generally higher than 200-300 mg/kg when given intraperitoneally to mice. In particular, the approximate LD50 values for compound 3 in mice were 1000 mg/kg after oral administration and 600 mg/kg after i.p. administration. […] Representative experiments were conducted essentially as described by B. N. Ames, J. McCann., E. Yamasaki, "Methods for detecting carcinogens and mutagens with the salmonella/microsome mutagenicy test" in Mutation Research, 31, 347-364, (1975).

renal hypertensive dogs [7] = assay: Heart rate in renal hypertensive dogs; assay type: in vivo, dog (mongrel); settings: experiments of Table III, oral
Description: (§2) More particularly, in the experiments with conscious renal hypertensive dogs, mongrel dogs with two clips on the renal arteries were used according to the Goldblatt's method. The compounds were administered by oral route as powder in gelatine capsules. Systolic blood pressure (SBP) was registered at the tail (indirect method).

[8] = system: conscious renal hypertensive dogs; assay: Systolic blood pressure in conscious renal hypertensive dogs (oral, Goldblatt's method); assay type: in vivo, dog (mongrel); settings: for % systolic pressure variation: Table I; for % Δ (% variation of the S.B.P. over the basal value) / S.B.P. (systolic blood pressure): Table III; for S.B.P. (systolic blood pressure): mean ± SE
Description: The experiments herein described which use renal hypertensive dogs are conducted essentially as described in the above cited text.
as §2
^a S.B.P. = Systolic blood pressure. It is determined after oral
administration where three animals were employed for each dose. It is
expressed in mmHg as mean value ± SE.
^b % Δ = % variation of the S.B.P. over the basal value (time
0) at the indicated time after administration.

[9] = system: conscious normotensive dogs; assay: Blood pressure in conscious normotensive dogs (oral); assay type: in vivo, dog (mongrel); settings: for % systolic blood pressure variation: Table II, oral; for Mean systolic blood pressure / % Δ of mean systolic blood pressure: Table V, single oral 20 mg/kg
Description: as §1

In the case of `CC(C)n1c(CCN2CCN(c3cccc(C(F)(F)F)c3)CC2)nc2ccc3ccccc3c21.O=C(O)CC(O)(CC(=O)O)C(=O)O` [Compound 3, 2-[2-[4-(3-trifluoromethylphenyl)-1-piperazinyl]ethyl]-1-(1-methylethyl)-1H-naphth[1,2-d]imidazole, 2-hydroxy-1,2,3-propantricarboxylate], the “signs of CNS-depression” value (mongrel dogs [1]) is reported as “slight sedation and very slight motor incoordination”, the “% Δ of S.B.P., peak effect (7h)” value (renal hypertensive dogs [2]; day 1 of treatment) is reported as -20% and the “S.B.P., basal value” (renal hypertensive dogs [2]; day 1 of treatment) is reported as 210 mmHg. For the same molecule, the “S.B.P., peak effect (7h)” value (renal hypertensive dogs [2]; day 1 of treatment) was 170 mmHg, the “% Δ of S.B.P., basal value” (renal hypertensive dogs [2]; day 3 of treatment) was -5% and the “% Δ of S.B.P., peak effect (7h)” value (renal hypertensive dogs [2]; day 3 of treatment) was -20%. The “S.B.P., basal value” (renal hypertensive dogs [2]; day 3 of treatment) was 200 mmHg, the “S.B.P., peak effect (7h)” value (renal hypertensive dogs [2]; day 3 of treatment) was 170 mmHg and the “% Δ of S.B.P., basal value” (renal hypertensive dogs [2]; day 5 of treatment) was -12%. For the same molecule, the “% Δ of S.B.P., peak effect (7h)” value (renal hypertensive dogs [2]; day 5 of treatment) was -24%, the “S.B.P., basal value” (renal hypertensive dogs [2]; day 5 of treatment) was 185 mmHg and the “S.B.P., peak effect (7h)” value (renal hypertensive dogs [2]; day 5 of treatment) was 160 mmHg. For the same molecule, the “% Δ of S.B.P., basal value” (renal hypertensive dogs [2]; day 7 of treatment) was -15%, the “% Δ of S.B.P., peak effect (7h)” value (renal hypertensive dogs [2]; day 7 of treatment) was -29% and the “S.B.P., basal value” (renal hypertensive dogs [2]; day 7 of treatment) was 180 mmHg. For the same molecule, the “S.B.P., peak effect (7h)” value (renal hypertensive dogs [2]; day 7 of treatment) was 150 mmHg, the tachiphylaxis (renal hypertensive dogs [2]; per os daily for 7 consecutive days, 10 mg/kg/die) was “proved not to induce tachiphylaxis” and the “dose beginning CNS-depressant activity relative to effective antihypertensive dose” value (mongrel dogs [3]) was “at least about ten times higher”. For the same molecule, the “dose at which signs of CNS-depression begin” value (mongrel dogs [3]; po) was 100 mg/kg, the “dose at which CNS-depressant effects begin” value (Beagle dogs) was “higher than 100 mg/kg” and the “antagonism of morphine in "running-fit" test” value (mice; 30 mg i.p.) was “inactive”. For the same molecule, the “antagonism of morphine in "running-fit" test” value (mice; 60 mg per os) was “inactive”, the “CNS depressant effect during the prolonged treatment” value (renal hypertensive dogs [4]) was “no tachycardia or CNS depressant effect was observed” and the “tachycardia during the prolonged treatment” value (renal hypertensive dogs [4]) was “no tachycardia”. The Myocardial contractility ([5]; 0 min (basal)) was 48 mmHg sec^-1, the “% Δ of myocardial contractility” value ([5]; 60 min) was “+10%” and the Myocardial contractility ([5]; 60 min) was 53 mmHg sec^-1. For the same molecule, the “% Δ of myocardial contractility” value ([5]; 120 min) was “+12%”, the Myocardial contractility ([5]; 120 min) was 54 mmHg sec^-1 and the “% Δ of myocardial contractility” value ([5]; 180 min) was “+10%”. For the same molecule, the Myocardial contractility ([5]; 180 min) was 53 mmHg sec^-1, the “% Δ of myocardial contractility” value ([5]; 300 min) was “+12%” and the Myocardial contractility ([5]; 300 min) was 54 mmHg sec^-1. For the same molecule, the “% Δ of myocardial contractility” value ([5]; 360 min) was “+6%”, the Myocardial contractility ([5]; 360 min) was 51 mmHg sec^-1 and the “effect on myocardial contractility (in words)” value ([5]; conscious normotensive dogs) was “proved not to reduce the myocardial contractility”. The LD50 ([6]; ip, intraperitoneal) was roughly 600 mg/kg, the LD50 ([6]; po, per os) was roughly 1000 mg/kg and the heart rate (renal hypertensive dogs [7]) was “no increase in the heart rate was observed but only a slight and transient decrease”. The minimal effective dose ([8]; Canis lupus familiaris, po, read-out: dose active in reducing the systolic blood pressure) was no more than 5 mg/kg, the “% systolic pressure variation” value ([8]; renal hypertensive dogs, oral, 20 mg/kg) was -24% and the “% systolic pressure variation” value ([8]; renal hypertensive dogs, oral, 30 mg/kg) was -20%. The “% Δ (% variation of the S.B.P. over the basal value)” value ([8]; oral 5 mg/kg, 1 h) was -3%, the “S.B.P. (systolic blood pressure)” value ([8]; oral 5 mg/kg, 1 h) was 205 ± 5 mmHg and the “% Δ (% variation of the S.B.P. over the basal value)” value ([8]; oral 5 mg/kg, 3 h) was -10%. For the same molecule, the “S.B.P. (systolic blood pressure)” value ([8]; oral 5 mg/kg, 3 h) was 190 ± 5 mmHg, the “% Δ (% variation of the S.B.P. over the basal value)” value ([8]; oral 5 mg/kg, 5 h) was -12% and the “S.B.P. (systolic blood pressure)” value ([8]; oral 5 mg/kg, 5 h) was 185 ± 7 mmHg. For the same molecule, the “% Δ (% variation of the S.B.P. over the basal value)” value ([8]; oral 5 mg/kg, 7 h) was -10%, the “S.B.P. (systolic blood pressure)” value ([8]; oral 5 mg/kg, 7 h) was 190 ± 4 mmHg and the “S.B.P. (systolic blood pressure)” value ([8]; oral 5 mg/kg, time 0 h (basal value), 3 animals) was 210 ± 7 mmHg. The “% Δ (% variation of the S.B.P. over the basal value)” value ([8]; oral 10 mg/kg, 1 h) was -8%, the “S.B.P. (systolic blood pressure)” value ([8]; oral 10 mg/kg, 1 h) was 190 ± 4 mmHg and the “% Δ (% variation of the S.B.P. over the basal value)” value ([8]; oral 10 mg/kg, 3 h) was -13%. The “S.B.P. (systolic blood pressure)” value ([8]; oral 10 mg/kg, 3 h) was 180 ± 7 mmHg, the “% Δ (% variation of the S.B.P. over the basal value)” value ([8]; oral 10 mg/kg, 5 h) was -22% and the “S.B.P. (systolic blood pressure)” value ([8]; oral 10 mg/kg, 5 h) was 160 ± 10 mmHg. For the same molecule, the “% Δ (% variation of the S.B.P. over the basal value)” value ([8]; oral 10 mg/kg, 7 h) was -18%, the “S.B.P. (systolic blood pressure)” value ([8]; oral 10 mg/kg, 7 h) was 170 ± 8 mmHg and the “S.B.P. (systolic blood pressure)” value ([8]; oral 10 mg/kg, time 0 h (basal value)) was 205 ± 7 mmHg. For the same molecule, the “% Δ (% variation of the S.B.P. over the basal value)” value ([8]; oral 20 mg/kg, 1 h) was -8%, the “S.B.P. (systolic blood pressure)” value ([8]; oral 20 mg/kg, 1 h) was 175 ± 7 mmHg and the “% Δ (% variation of the S.B.P. over the basal value)” value ([8]; oral 20 mg/kg, 3 h) was -14%. For the same molecule, the “S.B.P. (systolic blood pressure)” value ([8]; oral 20 mg/kg, 3 h) was 165 ± 8 mmHg, the “% Δ (% variation of the S.B.P. over the basal value)” value ([8]; oral 20 mg/kg, 5 h) was -27% and the “S.B.P. (systolic blood pressure)” value ([8]; oral 20 mg/kg, 5 h) was 140 ± 7 mmHg. The “% Δ (% variation of the S.B.P. over the basal value)” value ([8]; oral 20 mg/kg, 7 h) was -32%, the “S.B.P. (systolic blood pressure)” value ([8]; oral 20 mg/kg, 7 h) was 130 ± 7 mmHg and the “S.B.P. (systolic blood pressure)” value ([8]; oral 20 mg/kg, time 0 h (basal value)) was 190 ± 8 mmHg. The “duration of the reduction of the blood pressure” value ([8]; renal hypertensive dogs, oral) was “still present seven hours after administration”, the “% systolic blood pressure variation” value ([9]; 10 mg/kg) was -16% and the “% systolic blood pressure variation” value ([9]; 20 mg/kg) was -15%. The “Mean systolic blood pressure” value ([9]; 0 min (basal)) was 120 mmHg, the “% Δ of mean systolic blood pressure” value ([9]; 60 min) was -0% and the “Mean systolic blood pressure” value ([9]; 60 min) was 120 mmHg. For the same molecule, the “% Δ of mean systolic blood pressure” value ([9]; 120 min) was -12%, the “Mean systolic blood pressure” value ([9]; 120 min) was 106 mmHg and the “% Δ of mean systolic blood pressure” value ([9]; 180 min) was -15%. The “Mean systolic blood pressure” value ([9]; 180 min) was 102 mmHg, the “% Δ of mean systolic blood pressure” value ([9]; 300 min) was -17% and the “Mean systolic blood pressure” value ([9]; 300 min) was 100 mmHg. For the same molecule, the “% Δ of mean systolic blood pressure” value ([9]; 360 min) was -12% and the “Mean systolic blood pressure” value ([9]; 360 min) was 106 mmHg.
